SMILES strings stand for the structures.

T1 sequence (Q96P20 whole entry): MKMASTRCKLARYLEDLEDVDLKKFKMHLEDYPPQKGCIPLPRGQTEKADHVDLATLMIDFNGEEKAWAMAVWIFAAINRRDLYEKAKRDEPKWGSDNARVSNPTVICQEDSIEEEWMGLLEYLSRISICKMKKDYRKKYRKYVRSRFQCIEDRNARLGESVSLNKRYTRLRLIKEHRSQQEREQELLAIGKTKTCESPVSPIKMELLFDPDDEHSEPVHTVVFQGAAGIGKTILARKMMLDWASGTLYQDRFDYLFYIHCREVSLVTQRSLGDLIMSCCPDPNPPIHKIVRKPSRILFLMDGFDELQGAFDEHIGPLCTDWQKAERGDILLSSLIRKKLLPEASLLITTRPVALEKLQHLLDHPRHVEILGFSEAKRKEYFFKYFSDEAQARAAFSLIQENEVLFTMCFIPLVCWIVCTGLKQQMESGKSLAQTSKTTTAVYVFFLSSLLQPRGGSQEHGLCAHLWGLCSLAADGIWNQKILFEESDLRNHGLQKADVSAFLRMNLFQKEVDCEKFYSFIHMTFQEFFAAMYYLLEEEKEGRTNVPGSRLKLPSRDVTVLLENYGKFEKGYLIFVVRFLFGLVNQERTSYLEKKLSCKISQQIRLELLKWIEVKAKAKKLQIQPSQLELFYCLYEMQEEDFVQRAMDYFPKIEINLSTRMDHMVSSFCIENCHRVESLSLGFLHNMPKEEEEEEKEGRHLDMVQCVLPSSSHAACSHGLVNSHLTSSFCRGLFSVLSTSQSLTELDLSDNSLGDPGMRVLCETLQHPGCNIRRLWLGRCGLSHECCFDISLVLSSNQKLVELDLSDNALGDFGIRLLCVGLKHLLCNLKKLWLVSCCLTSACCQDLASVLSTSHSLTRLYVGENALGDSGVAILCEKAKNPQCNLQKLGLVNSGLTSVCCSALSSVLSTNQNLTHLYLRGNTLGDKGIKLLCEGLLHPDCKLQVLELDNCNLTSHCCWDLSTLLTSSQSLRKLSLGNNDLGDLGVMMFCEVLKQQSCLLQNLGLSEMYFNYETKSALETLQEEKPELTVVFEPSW

This test addresses T1, NLRP3 inflammasome (Homo sapiens, UniProt Q96P20).
T1 construct: endogenous in cells; host or cells: THP-1 cells (PMA-differentiated, LPS-primed, nigericin-stimulated)
The test can be described thus: THP-1 Cell-Based NLRP3 Activation Assay. The note with it: THP-1 cells, PMA, 100 ng/mL LPS 3 hrs, 30 min pre-incubation with test compound, 10 μM nigericin 1 hr. The procedure: THP-1 cells are cultured in complete media (CM) until they reach logarithmic growth and achieve a viability >90%. CM is composed of RPMI-1640 (+Glutamax)/10% fetal bovine serum/55 μM β-mercaptoethanol/pen/strep. Cells are spun down and resuspended to 1,000,000 cells/mL in CM containing either 20 nM or 500 nM PMA. 150,000 cells […] are then added to each well of a 96-well TC plate and incubated for either 24 hr or 3 hr, respectively, in a standard cell culture incubator (37° C.; 5% CO2). After this incubation, the plate is tilted and media carefully removed. 200 μL of CM containing 100 ng/mL LPS is then added to the wells and the cells incubated an additional 3 hrs. The media is again removed and replaced with Opti-Mem medium containing pre-determined dilutions of test compounds in replicate wells. After a 30 min pre-incubation with test compound, 10 μM nigericin (final concentration) in Opti-Mem medium with the corresponding concentration of compound is added to the wells for an additional 1 hr. Positive control wells contain 10 μM nigericin in Opti-Mem in the absence of test compound, while negative control wells contain Opti-Mem only. […] Once supernatants are removed, the relative viability of adherent cells in the 96-well TC plate are determined using a CellTiter-Glo® luminescent cell viability assay (Promega).
In general, IC50 refers to the concentration at which inhibition is half-maximal. High values mean a need for much substance, low ones inhibition by little substance. Molecule `CC(O)c1ncc(CN(C)C(=O)c2ccc(-c3cccc(C#N)c3)c(OC3CC3)c2)c2[nH]ncc12` (stereo not drawn) [Compound 080] yielded an IC50 of less than 50 µM.

Take `CN(Cc1c(CO)ncc2cn[nH]c12)C(=O)c1ccc(-c2cccc(Cl)c2)c(OC2CC2)c1` [Compound 144]: the IC50 is less than 1 µM.

Take `CC(O)c1ncc(CN(C)C(=O)c2cc(F)c(-c3cccc(C#N)c3)c(OC3CC3)c2)c2[nH]ncc12` (stereo not drawn) [Compound 091]: the IC50 is less than 1 µM.

`Cc1nc(CO)c2cn[nH]c2c1CN(C)C(=O)c1ccc(-c2cccc(Cl)c2)c(OC2CC2)c1` [Compound 041]: the 50% inhibitory concentration (IC50) was less than 1 µM.

The molecule `CCN(Cc1cnc(CO)c2cn[nH]c12)C(=O)c1ccc(-c2cccc(Cl)c2)c(OC2CC2)c1` [Compound 182] returned an IC50 of less than 1 µM.

The molecule `C[C@@H](c1cncc2cn[nH]c12)N(C)C(=O)c1ccc(-c2cccc(F)c2)c(OC2CC2)c1` [Compound 052] had an IC50 of less than 1 µM.

Regarding `CCOc1cc(C(=O)N(C)Cc2c(C)c(OC)cc3cn[nH]c23)ccc1-c1cccc(F)c1` [Compound 167], the IC50 was less than 1 µM.

`CC(O)c1ncc(CN(C)C(=O)c2ccc(-c3cccc(Cl)c3)c(OC3CC3)c2)c2[nH]ncc12` (stereo not drawn) [Compound 101] registered an IC50 of less than 1 µM.

For `CCOc1cc(C(=O)N(C)Cc2cnc(C(C)O)c3cn[nH]c23)cc(F)c1-c1cccc(F)c1` (stereo not drawn) [Compound 118], the IC50 is less than 1 µM.

Take `CCOc1cc(C(=O)N(C)Cc2cc(O)cc3cn[nH]c23)cc(F)c1-c1cccc(Cl)c1` [Compound 178]: the IC50 is less than 1 µM.

As for `CN(Cc1cnc(CF)c2cn[nH]c12)C(=O)c1cc(F)c(-c2cccs2)c(OC2CC2)c1` [Compound 105], the IC50 is less than 1 µM.

For `CC(O)c1ncc(CN(C)C(=O)c2ccc(-c3cccs3)c(OC3CC3)c2)c2[nH]ncc12` (stereo not drawn) [Compound 083], the IC50 is less than 10 µM.

On to `CCOc1cc(C(=O)N(C)Cc2cnc(C(O)C(F)(F)F)c3cn[nH]c23)ccc1-c1cccc(F)c1` (stereo not drawn) [Compound 171], for which the IC50 was less than 1 µM.

In turn, `CCOc1cc(C(=O)N(C)Cc2cnc(C(C)O)c3cn[nH]c23)cc(Cl)c1-c1cccc(Cl)c1` (stereo not drawn) [Compound 166] gave an IC50 of less than 1 µM.

Turning to `CCOc1cc(C(=O)N(C)Cc2c(F)c(O)cc3cn[nH]c23)ccc1-c1cccc(F)c1` [Compound 148], the IC50 was less than 1 µM.

On to `CCOc1cc(C(=O)N(C)Cc2cnc(CO)c3cn[nH]c23)cc(F)c1-c1cc(F)cc(F)c1` [Compound 131], for which the IC50 was less than 1 µM.

Molecule `CCOc1cc(C(=O)N(C)C(CC)c2cncc3cn[nH]c23)ccc1-c1cccc(F)c1` (stereo not drawn) [Compound 117] had an IC50 of less than 1 µM.

In turn, `CN(Cc1c(CO)ncc2cn[nH]c12)C(=O)c1cc(F)c(-c2cccc(Cl)c2)c(OC2CC2)c1` [Compound 145] showed an IC50 of less than 1 µM.

With `CCOc1cc(C(=O)N(C)Cc2cnc(C(C)O)c3cn[nH]c23)ccc1-c1cc(F)cc(F)c1` (stereo not drawn) [Compound 026], the IC50 is less than 1 µM.

Molecule `CCOc1cc(C(=O)N(C)Cc2cccc3[nH]ncc23)ccc1-c1cccc(C#N)c1` [Compound 126] came in with an IC50 of less than 1 µM.

Molecule `CCOc1cc(C(=O)N(CC)Cc2cnc(CO)c3cn[nH]c23)ccc1-c1cccc(C#N)c1` [Compound 103] yielded an IC50 of less than 10 µM.

`CN(Cc1cnc(CO)c2cn[nH]c12)C(=O)c1cc(Cl)c(-c2cccc(F)c2)c(OC2CC2)c1` [Compound 162] displayed an IC50 of less than 1 µM.

Regarding `CCC(c1cncc2cn[nH]c12)N(C)C(=O)c1ccc(-c2cccc(F)c2)c(OC2CC2)c1` (stereo not drawn) [Compound 109], the IC50 is less than 1 µM.

Consider `CCOc1cc(C(=O)N(C)Cc2cnc(C(C)O)c3cn[nH]c23)ccc1-c1ccc(Cl)s1` (stereo not drawn) [Compound 163], for which the IC50 is less than 1 µM.

`CCOc1cc(C(=O)N(C)Cc2cnc(C(C)O)c3cn[nH]c23)cc(F)c1-c1cc(F)cc(C#N)c1` (stereo not drawn) [Compound 076]: the IC50 was less than 1 µM.

Turning to `CCOc1cc(C(=O)N(C)Cc2cnc(C(C)O)c3cn[nH]c23)cc(F)c1-c1cc(F)cc(Cl)c1` (stereo not drawn) [Compound 096], the IC50 was less than 1 µM.

Molecule `CCOc1cc(C(=O)N(C)Cc2cnc(CO)c3cn[nH]c23)cc(F)c1-c1cc(C#N)cs1` [Compound 073] showed an IC50 of less than 1 µM.

These data come from patent publication US20240116933A1, “INDAZOLE AND PYRAZOLOPYRIDINE COMPOUNDS AS INHIBITORS OF NLRP3 INFLAMMASOME” (BioAge Labs, Inc., priority 2022, published 2024).
